Assay results from patent US20040002506A1, “Novel class of cytodifferentiating agents and histone deacetylase inhibitors, and methods of use thereof” (Sloan Kettering Institute for Cancer Research, priority 1999, published 2004).

Tested on: Murine erythroleukemia (MEL) cells
Experiment: MEL cell differentiation assay (benzidine assay, 5-day culture)
Type: cell-based
Conditions: Table 2, "No inh" = words
Experimental: (§1) Murine erythroleukemia (MEL) cell differentiation. The MEL cell differentiation assay was used to assess the ability of Compound 1 to induce terminal differentiation. MEL cells (logarithmically dividing) were cultured with the indicated concentrations of Compound 1. Following a 5-day culture period, cell growth was determined using a Coulter Counter and differentiation was determined microscopically using the benzidine assay to determine hemoglobin protein accumulation on a per cell basis.
as §1, with “The” for “Murine erythroleukemia (MEL) cell differentiation. The”, “2” for “1”, “2.” for “1.”, “period” for “period, cell growth was determined using a Coulter Counter and”
as §1, with “The” for “Murine erythroleukemia (MEL) cell differentiation. The”, “3” for “1”, “3.” for “1.”, “period” for “period, cell growth was determined using a Coulter Counter and”
as §1, with “The” for “Murine erythroleukemia (MEL) cell differentiation. The”, “4” for “1”, “4.” for “1.”, “period” for “period, cell growth was determined using a Coulter Counter and”, “accumulaiton” for “accumulation”
All the compounds which were prepared were tested. […] Table 2 is compiled from experiments similar to the experiments described in Examples 7-10 above.

Compound	MEL cell growth (cell count)
O=C(/C=C/c1cccc(CC(=O)Nc2ccccc2)c1)NO [Structure 689]	2.0 cells/ml × 10^−5
O=C(/C=C/c1cccc(C(C(=O)Nc2cccc3cccnc23)C(=O)Nc2cccc3cccnc23)c1)NO [Structure 690]	2.5 cells/ml × 10^−5
O=C(CCCCCC(C(=O)Nc1ccc2ncccc2c1)C(=O)Nc1ccc2ncccc2c1)NO [Structure 692]	18.0 cells/ml × 10^−5
